The record followed here is patent US20260356819A1, “OXOISOINDOLINYL-SUBSTITUTED […] DERIVATIVE AND USE THEREOF” (GLUETACS THERAPEUTICS (SHANGHAI) CO., LTD., priority 2023, published 2026).

Holding throughout (format): cell-based
Holding throughout (conditions): compounds at 50 nM and 500 nM

For one experiment, the target named is T1, WEE1 (Homo sapiens, UniProt P30291+Q96SW2).
T1 construct: The supernatant was aspirated as the extracted total cell protein; endogenous in cells; host or cells: human peripheral blood mononuclear cells (hPBMCs)
T1 sequence (P30291 whole entry): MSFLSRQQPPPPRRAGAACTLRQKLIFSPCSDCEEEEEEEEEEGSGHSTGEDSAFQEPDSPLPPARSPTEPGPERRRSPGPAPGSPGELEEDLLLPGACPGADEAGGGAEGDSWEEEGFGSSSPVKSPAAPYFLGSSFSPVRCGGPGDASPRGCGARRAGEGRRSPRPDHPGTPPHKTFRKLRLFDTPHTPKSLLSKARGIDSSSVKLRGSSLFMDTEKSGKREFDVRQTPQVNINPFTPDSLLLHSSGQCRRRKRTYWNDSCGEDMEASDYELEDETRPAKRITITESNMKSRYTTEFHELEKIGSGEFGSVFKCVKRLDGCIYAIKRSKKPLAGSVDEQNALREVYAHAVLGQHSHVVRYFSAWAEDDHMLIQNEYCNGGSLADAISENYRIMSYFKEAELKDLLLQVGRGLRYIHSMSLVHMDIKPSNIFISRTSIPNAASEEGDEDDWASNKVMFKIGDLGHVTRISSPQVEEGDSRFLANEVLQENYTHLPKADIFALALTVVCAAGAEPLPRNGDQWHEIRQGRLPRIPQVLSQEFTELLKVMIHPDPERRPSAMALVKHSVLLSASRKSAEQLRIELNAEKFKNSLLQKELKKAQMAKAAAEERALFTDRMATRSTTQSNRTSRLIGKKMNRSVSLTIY
T1 sequence (Q96SW2 whole entry): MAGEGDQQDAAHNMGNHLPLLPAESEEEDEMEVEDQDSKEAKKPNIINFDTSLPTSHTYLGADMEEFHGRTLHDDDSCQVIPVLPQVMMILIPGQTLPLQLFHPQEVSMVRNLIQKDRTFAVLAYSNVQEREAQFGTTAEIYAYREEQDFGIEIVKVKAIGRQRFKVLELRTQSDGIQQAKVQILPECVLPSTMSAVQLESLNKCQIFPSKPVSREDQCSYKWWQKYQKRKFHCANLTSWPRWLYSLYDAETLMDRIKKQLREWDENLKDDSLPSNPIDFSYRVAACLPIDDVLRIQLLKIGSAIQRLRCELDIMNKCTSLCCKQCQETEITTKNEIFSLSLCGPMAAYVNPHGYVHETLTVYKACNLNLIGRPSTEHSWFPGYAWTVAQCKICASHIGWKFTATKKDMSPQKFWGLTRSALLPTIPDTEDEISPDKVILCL
T1 sequence (Q16531 whole entry partner): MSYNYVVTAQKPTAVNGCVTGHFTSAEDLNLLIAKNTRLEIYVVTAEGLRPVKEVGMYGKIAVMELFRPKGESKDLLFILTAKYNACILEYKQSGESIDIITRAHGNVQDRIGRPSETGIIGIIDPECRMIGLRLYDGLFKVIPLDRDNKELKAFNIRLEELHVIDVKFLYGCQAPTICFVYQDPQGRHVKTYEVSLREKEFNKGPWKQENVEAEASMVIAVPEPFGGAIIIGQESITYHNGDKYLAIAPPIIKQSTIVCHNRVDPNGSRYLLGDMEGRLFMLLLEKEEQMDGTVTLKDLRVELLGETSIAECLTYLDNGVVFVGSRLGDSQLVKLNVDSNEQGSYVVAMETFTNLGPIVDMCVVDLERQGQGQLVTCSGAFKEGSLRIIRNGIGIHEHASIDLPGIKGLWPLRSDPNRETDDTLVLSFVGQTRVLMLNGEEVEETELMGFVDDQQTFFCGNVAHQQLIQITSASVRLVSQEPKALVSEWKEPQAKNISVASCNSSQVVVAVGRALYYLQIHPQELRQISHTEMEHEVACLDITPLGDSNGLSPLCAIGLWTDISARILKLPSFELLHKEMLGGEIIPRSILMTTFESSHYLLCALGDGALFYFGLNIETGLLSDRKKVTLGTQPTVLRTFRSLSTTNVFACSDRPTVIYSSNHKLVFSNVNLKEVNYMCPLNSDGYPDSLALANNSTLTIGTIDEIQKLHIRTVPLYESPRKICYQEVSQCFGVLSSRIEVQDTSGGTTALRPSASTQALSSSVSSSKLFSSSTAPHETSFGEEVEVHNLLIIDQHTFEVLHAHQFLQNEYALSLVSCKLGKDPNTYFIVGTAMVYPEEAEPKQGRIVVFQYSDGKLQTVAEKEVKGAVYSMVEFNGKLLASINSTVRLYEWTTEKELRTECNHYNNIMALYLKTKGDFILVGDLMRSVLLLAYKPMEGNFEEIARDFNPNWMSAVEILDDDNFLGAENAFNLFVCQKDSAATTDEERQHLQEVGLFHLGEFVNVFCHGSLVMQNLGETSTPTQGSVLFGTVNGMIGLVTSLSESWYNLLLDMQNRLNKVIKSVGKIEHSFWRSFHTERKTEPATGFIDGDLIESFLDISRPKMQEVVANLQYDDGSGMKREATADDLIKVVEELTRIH
The experiment can be described thus: Western blot degradation of WEE1 in hPBMCs (24 h). In outline: (§1)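 Immunoblot densitometry quantifies target loss in hPBMCs after a 24 h compound exposure (50 nM, 500 nM). Percent remaining is normalised band intensity; DC50 is the concentration giving half the DMSO-control band grayscale.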

The next experiment concerns the target T2, IKZF1 (Homo sapiens, UniProt Q13422+Q96SW2).
T2 construct: The supernatant was aspirated as the extracted total cell protein; endogenous in cells; host or cells: human peripheral blood mononuclear cells (hPBMCs)
Put plainly: Western blot degradation of IKZF1 in hPBMCs (24 h). The procedure, abridged: as §1

The target in a further experiment is T3, IKZF2 (Homo sapiens, UniProt Q96SW2+Q9UKS7).
T3 construct: The supernatant was aspirated as the extracted total cell protein; endogenous in cells; host or cells: human peripheral blood mononuclear cells (hPBMCs)
T3 sequence (Q9UKS7 whole entry): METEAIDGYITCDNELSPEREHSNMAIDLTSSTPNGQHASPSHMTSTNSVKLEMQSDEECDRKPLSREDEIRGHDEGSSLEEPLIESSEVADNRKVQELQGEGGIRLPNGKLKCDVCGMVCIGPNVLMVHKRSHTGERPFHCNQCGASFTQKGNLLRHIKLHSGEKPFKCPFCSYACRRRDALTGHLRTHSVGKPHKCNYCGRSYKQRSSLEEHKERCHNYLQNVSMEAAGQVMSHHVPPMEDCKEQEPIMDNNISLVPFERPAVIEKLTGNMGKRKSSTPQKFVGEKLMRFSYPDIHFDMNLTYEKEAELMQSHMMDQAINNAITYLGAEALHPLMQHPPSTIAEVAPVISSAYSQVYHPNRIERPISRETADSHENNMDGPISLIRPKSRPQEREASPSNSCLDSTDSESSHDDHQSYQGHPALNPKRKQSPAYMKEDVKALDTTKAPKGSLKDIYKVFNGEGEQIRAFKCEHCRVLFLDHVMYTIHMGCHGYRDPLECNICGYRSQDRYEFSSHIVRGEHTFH
T3 sequence (Q96SW2 whole entry): as the sequence (Q96SW2 whole entry) above
T3 sequence (Q16531 whole entry partner): as the sequence (Q16531 whole entry partner) above
Put plainly: Western blot degradation of IKZF2 in hPBMCs (24 h). In outline:
as §1
(In general: Immunoblotting shows a protein as a band on a membrane.)

The target in the next experiment is T4, IKZF3 (Homo sapiens, UniProt Q96SW2+Q9UKT9).
T4 construct: The supernatant was aspirated as the extracted total cell protein; endogenous in cells; host or cells: human peripheral blood mononuclear cells (hPBMCs)
T4 sequence (Q9UKT9 whole entry): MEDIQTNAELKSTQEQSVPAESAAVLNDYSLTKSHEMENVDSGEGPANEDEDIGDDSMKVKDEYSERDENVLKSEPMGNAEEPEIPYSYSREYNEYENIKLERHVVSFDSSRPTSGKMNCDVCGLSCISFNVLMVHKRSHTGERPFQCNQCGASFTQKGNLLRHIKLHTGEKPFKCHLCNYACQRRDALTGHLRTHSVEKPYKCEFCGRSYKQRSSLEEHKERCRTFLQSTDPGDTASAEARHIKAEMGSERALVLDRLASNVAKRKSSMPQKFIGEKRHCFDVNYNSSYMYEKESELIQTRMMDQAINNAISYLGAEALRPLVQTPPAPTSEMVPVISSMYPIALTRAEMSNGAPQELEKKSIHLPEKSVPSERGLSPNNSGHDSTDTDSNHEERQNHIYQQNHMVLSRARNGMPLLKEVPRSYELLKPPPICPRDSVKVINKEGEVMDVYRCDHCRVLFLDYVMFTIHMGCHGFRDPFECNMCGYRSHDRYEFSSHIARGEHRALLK
T4 sequence (Q96SW2 whole entry): as the sequence (Q96SW2 whole entry) above
T4 sequence (Q16531 whole entry partner): as the sequence (Q16531 whole entry partner) above
Put plainly: Western blot degradation of IKZF3 in hPBMCs (24 h). In outline: as §1

Another experiment deals with T5, CK1α (Homo sapiens, UniProt P48729+Q96SW2).
T5 construct: The supernatant was aspirated as the extracted total cell protein; endogenous in cells; host or cells: human peripheral blood mononuclear cells (hPBMCs)
Put plainly: Western blot degradation of CK1α in hPBMCs (24 h). In outline:
as §1

The next experiment addresses T6, GSPT1 (Homo sapiens, UniProt P15170+Q96SW2).
T6 construct: The supernatant was aspirated as the extracted total cell protein; endogenous in cells; host or cells: human peripheral blood mononuclear cells (hPBMCs)
The experiment can be described thus: Western blot degradation of GSPT1 in hPBMCs (24 h). The procedure, abridged: as §1

T6 sequence (P15170 whole entry): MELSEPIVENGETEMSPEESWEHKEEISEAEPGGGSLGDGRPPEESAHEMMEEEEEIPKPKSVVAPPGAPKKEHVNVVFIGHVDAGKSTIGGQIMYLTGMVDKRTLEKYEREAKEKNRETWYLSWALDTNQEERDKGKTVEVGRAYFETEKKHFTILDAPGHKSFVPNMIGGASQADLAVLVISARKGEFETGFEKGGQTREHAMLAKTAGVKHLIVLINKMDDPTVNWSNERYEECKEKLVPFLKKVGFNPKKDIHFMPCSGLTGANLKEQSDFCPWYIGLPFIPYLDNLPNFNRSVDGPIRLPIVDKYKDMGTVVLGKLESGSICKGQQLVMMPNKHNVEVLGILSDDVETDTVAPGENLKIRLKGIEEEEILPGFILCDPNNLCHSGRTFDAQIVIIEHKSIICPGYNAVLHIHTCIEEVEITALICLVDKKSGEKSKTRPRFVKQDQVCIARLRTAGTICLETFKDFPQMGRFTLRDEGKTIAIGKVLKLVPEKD
T6 sequence (Q96SW2 whole entry): as the sequence (Q96SW2 whole entry) above
T6 sequence (Q16531 whole entry partner): as the sequence (Q16531 whole entry partner) above
T2 sequence (Q13422 whole entry): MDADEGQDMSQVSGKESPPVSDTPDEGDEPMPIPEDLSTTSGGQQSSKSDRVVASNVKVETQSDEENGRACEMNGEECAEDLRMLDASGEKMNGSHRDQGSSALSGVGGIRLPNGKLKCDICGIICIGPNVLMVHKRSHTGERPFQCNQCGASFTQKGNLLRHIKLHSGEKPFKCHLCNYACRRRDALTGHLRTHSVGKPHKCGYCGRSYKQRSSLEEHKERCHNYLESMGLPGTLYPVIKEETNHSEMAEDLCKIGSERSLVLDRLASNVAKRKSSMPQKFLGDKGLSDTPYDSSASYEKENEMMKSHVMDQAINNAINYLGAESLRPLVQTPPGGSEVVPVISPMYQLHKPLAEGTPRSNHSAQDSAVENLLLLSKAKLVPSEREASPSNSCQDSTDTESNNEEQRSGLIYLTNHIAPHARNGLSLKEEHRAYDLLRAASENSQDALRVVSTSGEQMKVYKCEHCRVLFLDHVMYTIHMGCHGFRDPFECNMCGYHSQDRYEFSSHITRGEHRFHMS
T2 sequence (Q96SW2 whole entry): as the sequence (Q96SW2 whole entry) above
T2 sequence (Q16531 whole entry partner): as the sequence (Q16531 whole entry partner) above

Regarding `C[C@@H]1CN(C(c2ccccc2)c2ccccc2)CCN1Cc1ccc2c(c1)C(=O)N(N1CCC(=O)NC1=O)C2=O` [GT-06449, (R)-5-((4-benzhydryl-2-methylpiperazin-1-yl)methyl)-2-(2,4-dioxotetrahydropyrimidin-1(2H)-yl)isoindoline-1,3-dione], on WEE1, the “WEE1 substrate protein remaining %” value is on record as “B (80%< substrate protein remaining % ≤100%)”. Also, the “IKZF1 substrate protein remaining %” value on IKZF1 was “B (80%< substrate protein remaining % ≤100%)”. In addition, the “IKZF2 substrate protein remaining %” value at IKZF2 is listed as “A (0% ≤ substrate protein remaining % ≤80%)”. Besides, the “IKZF3 substrate protein remaining %” value on IKZF3 is given as “A (0% ≤ substrate protein remaining % ≤80%)”. In addition, the “CK1α substrate protein remaining %” value at CK1α is reported as “B (80%< substrate protein remaining % ≤100%)”. In addition, at GSPT1, the “GSPT1 substrate protein remaining %” value is on record as “A (0% ≤ substrate protein remaining % ≤80%)”.

Turning to `O=C1CCN(N2Cc3cc(CN4CCN(C(c5ccccc5)c5cccnc5)CC4)ccc3C2=O)C(=O)N1` (stereo not drawn) [GT-06376, 1-(1-oxo-5-((4-(phenyl(pyridin-3-yl)methyl)piperazin-1-yl)methyl)isoindolin-2-yl)dihydropyrimidine-2,4(1H,3H)-dione], on WEE1, the “WEE1 substrate protein remaining %” value is “A (0% ≤ substrate protein remaining % ≤80%)”. Moreover, on IKZF1, the “IKZF1 substrate protein remaining %” value was “B (80%< substrate protein remaining % ≤100%)”. The “IKZF2 substrate protein remaining %” value on IKZF2 is “A (0% ≤ substrate protein remaining % ≤80%)”. Further, the “IKZF3 substrate protein remaining %” value at IKZF3 was “B (80%< substrate protein remaining % ≤100%)”. The “CK1α substrate protein remaining %” value at CK1α is “B (80%< substrate protein remaining % ≤100%)”. Also, the “GSPT1 substrate protein remaining %” value at GSPT1 is reported as “A (0% ≤ substrate protein remaining % ≤80%)”.

Take `O=C1CCN(N2Cc3cc(CN4C5CC4CN(C(=O)C4=C(c6ccc(F)cc6)CCCC4)C5)ccc3C2=O)C(=O)N1` [GT-07376, 1-(5-((3-(4′-fluoro-3,4,5,6-tetrahydro-[1,1′-biphenyl]-2-carbonyl)-3,6-diazabicyclo[3.1.1]heptan-6-yl)methyl)-1-oxoisoindolin-2-yl)dihydropyrimidine-2,4(1H,3H)-dione]: the “WEE1 substrate protein remaining %” value on WEE1 is “A (0% ≤ substrate protein remaining % ≤80%)”. Besides, the “IKZF1 substrate protein remaining %” value on IKZF1 is listed as “B (80%< substrate protein remaining % ≤100%)”. The “IKZF2 substrate protein remaining %” value on IKZF2 is “B (80%< substrate protein remaining % ≤100%)”. In addition, the “IKZF3 substrate protein remaining %” value at IKZF3 is recorded as “B (80%< substrate protein remaining % ≤100%)”. Also, the “CK1α substrate protein remaining %” value on CK1α is on record as “B (80%< substrate protein remaining % ≤100%)”. In addition, the “GSPT1 substrate protein remaining %” value on GSPT1 is listed as “B (80%< substrate protein remaining % ≤100%)”.

Turning to `O=C1CCN(N2C(=O)c3ccc(CN4CCC(c5ccon5)CC4)cc3C2=O)C(=O)N1` [GT-07523, 2-(2,4-dioxotetrahydropyrimidin-1(2H)-yl)-5-((4-(isoxazol-3-yl)piperidin-1-yl)methyl)isoindoline-1,3-dione], the “WEE1 substrate protein remaining %” value on WEE1 is “A (0% ≤ substrate protein remaining % ≤80%)”. For the same compound, the “IKZF1 substrate protein remaining %” value at IKZF1 is “A (0% ≤ substrate protein remaining % ≤80%)”. Besides, at IKZF2, the “IKZF2 substrate protein remaining %” value is “A (0% ≤ substrate protein remaining % ≤80%)”. For the same compound, the “IKZF3 substrate protein remaining %” value at IKZF3 is reported as “B (80%< substrate protein remaining % ≤100%)”. The “CK1α substrate protein remaining %” value at CK1α is listed as “A (0% ≤ substrate protein remaining % ≤80%)”. Also, the “GSPT1 substrate protein remaining %” value at GSPT1 is on record as “A (0% ≤ substrate protein remaining % ≤80%)”.

`Cc1cc(N2CCN(Cc3ccc4c(c3)CN(N3CCC(=O)NC3=O)C4=O)CC2)cs1` [GT-05087, 1-(5-((4-(5-methylthiophen-3-yl)piperazin-1-yl)methyl)-1-oxoisoindolin-2-yl)dihydropyrimidine-2,4(1H,3H)-dione]: the “WEE1 substrate protein remaining %” value at WEE1 was “B (80%< substrate protein remaining % ≤100%)”. Moreover, the “IKZF1 substrate protein remaining %” value at IKZF1 is recorded as “B (80%< substrate protein remaining % ≤100%)”. On IKZF2, the “IKZF2 substrate protein remaining %” value is listed as “B (80%< substrate protein remaining % ≤100%)”. In addition, the “IKZF3 substrate protein remaining %” value on IKZF3 was “B (80%< substrate protein remaining % ≤100%)”. In addition, the “CK1α substrate protein remaining %” value at CK1α is “B (80%< substrate protein remaining % ≤100%)”. Also, the “GSPT1 substrate protein remaining %” value at GSPT1 was “A (0% ≤ substrate protein remaining % ≤80%)”.

In the case of `Cn1cc(C2CCN(Cc3ccc4c(c3)C(=O)N(N3CCC(=O)NC3=O)C4=O)CC2)c2ccc(F)cc21` [GT-07581, 2-(2,4-dioxotetrahydropyrimidin-1(2H)-yl)-5-((4-(6-fluoro-1-methyl-1H-indol-3-yl)piperidin-1-yl)methyl)isoindoline-1,3-dione], the “WEE1 substrate protein remaining %” value on WEE1 is recorded as “A (0% ≤ substrate protein remaining % ≤80%)”. Also, the “IKZF1 substrate protein remaining %” value at IKZF1 is “A (0% ≤ substrate protein remaining % ≤80%)”. On IKZF2, the “IKZF2 substrate protein remaining %” value is recorded as “A (0% ≤ substrate protein remaining % ≤80%)”. The “IKZF3 substrate protein remaining %” value on IKZF3 is listed as “B (80%< substrate protein remaining % ≤100%)”. On CK1α, the “CK1α substrate protein remaining %” value is “B (80%< substrate protein remaining % ≤100%)”. In addition, the “GSPT1 substrate protein remaining %” value on GSPT1 is on record as “A (0% ≤ substrate protein remaining % ≤80%)”.

Take `O=C1CCN(N2Cc3cc(CN4CCN(c5nc(N6CCNCC6)c6sccc6n5)CC4)ccc3C2=O)C(=O)N1` [GT-08949, 1-(1-oxo-5-((4-(4-(piperazin-1-yl)thieno[3,2-d]pyrimidin-2-yl)piperazin-1-yl)methyl)isoindolin-2-yl)dihydropyrimidine-2,4(1H,3H)-dione]: the “WEE1 substrate protein remaining %” value at WEE1 is recorded as “B (80%< substrate protein remaining % ≤100%)”. Moreover, the “IKZF1 substrate protein remaining %” value at IKZF1 is listed as “B (80%< substrate protein remaining % ≤100%)”. The “IKZF2 substrate protein remaining %” value at IKZF2 is “B (80%< substrate protein remaining % ≤100%)”. Moreover, the “IKZF3 substrate protein remaining %” value on IKZF3 is listed as “B (80%< substrate protein remaining % ≤100%)”. In addition, the “CK1α substrate protein remaining %” value at CK1α is “B (80%< substrate protein remaining % ≤100%)”. For the same compound, at GSPT1, the “GSPT1 substrate protein remaining %” value is on record as “A (0% ≤ substrate protein remaining % ≤80%)”.

For the compound `O=C1CCN(N2C(=O)c3ccc(CN4CCC(n5cnc6cc(F)ccc65)CC4)cc3C2=O)C(=O)N1` [GT-07529, 2-(2,4-dioxotetrahydropyrimidin-1(2H)-yl)-5-((4-(5-fluoro-1H-benzo[d]imidazol-1-yl)piperidin-1-yl)methyl)isoindoline-1,3-dione], on WEE1, the “WEE1 substrate protein remaining %” value was “B (80%< substrate protein remaining % ≤100%)”. In addition, the “IKZF1 substrate protein remaining %” value at IKZF1 was “B (80%< substrate protein remaining % ≤100%)”. Besides, at IKZF2, the “IKZF2 substrate protein remaining %” value is on record as “B (80%< substrate protein remaining % ≤100%)”. For the same compound, the “IKZF3 substrate protein remaining %” value at IKZF3 is recorded as “B (80%< substrate protein remaining % ≤100%)”. For the same compound, the “CK1α substrate protein remaining %” value on CK1α was “A (0% ≤ substrate protein remaining % ≤80%)”. At GSPT1, the “GSPT1 substrate protein remaining %” value was “A (0% ≤ substrate protein remaining % ≤80%)”.

Take `O=C1CCN(N2C(=O)c3ccc(CN4CCN(c5nc(N6CCOCC6)nc6c5SCC6)CC4)cc3C2=O)C(=O)N1` [GT-08450, 2-(2,4-dioxotetrahydropyrimidin-1(2H)-yl)-5-((4-(2-morpholino-6,7-dihydrothieno[3,2-d]pyrimidin-4-yl)piperazin-1-yl)methyl)isoindoline-1,3-dione]: at WEE1, the “WEE1 substrate protein remaining %” value is listed as “B (80%< substrate protein remaining % ≤100%)”. Further, at IKZF1, the “IKZF1 substrate protein remaining %” value is given as “B (80%< substrate protein remaining % ≤100%)”. For the same compound, the “IKZF2 substrate protein remaining %” value on IKZF2 is listed as “B (80%< substrate protein remaining % ≤100%)”. Besides, the “IKZF3 substrate protein remaining %” value on IKZF3 is recorded as “B (80%< substrate protein remaining % ≤100%)”. Besides, the “CK1α substrate protein remaining %” value at CK1α is listed as “B (80%< substrate protein remaining % ≤100%)”. At GSPT1, the “GSPT1 substrate protein remaining %” value is “A (0% ≤ substrate protein remaining % ≤80%)”.

Turning to `O=C1CCN(N2Cc3cc(CN4CCN(c5cccc(F)c5)CC4)ccc3C2=O)C(=O)N1` [GT-06701, 1-(5-((4-(3-fluorophenyl)piperazin-1-yl)methyl)-1-oxoisoindolin-2-yl)dihydropyrimidine-2,4(1H,3H)-dione], the “WEE1 substrate protein remaining %” value on WEE1 is on record as “B (80%< substrate protein remaining % ≤100%)”. Besides, at IKZF1, the “IKZF1 substrate protein remaining %” value is “B (80%< substrate protein remaining % ≤100%)”. Besides, the “IKZF2 substrate protein remaining %” value at IKZF2 is recorded as “B (80%< substrate protein remaining % ≤100%)”. The “IKZF3 substrate protein remaining %” value on IKZF3 was “B (80%< substrate protein remaining % ≤100%)”. On CK1α, the “CK1α substrate protein remaining %” value is “A (0% ≤ substrate protein remaining % ≤80%)”. The “GSPT1 substrate protein remaining %” value at GSPT1 is “A (0% ≤ substrate protein remaining % ≤80%)”.

Regarding `O=C1CCN(N2C(=O)c3ccc(CN4CCC(c5c[nH]c6cc(F)ccc56)CC4)cc3C2=O)C(=O)N1` [GT-05259, 2-(2,4-dioxotetrahydropyrimidin-1(2H)-yl)-5-((4-(6-fluoro-1H-indol-3-yl)piperidin-1-yl)methyl)isoindoline-1,3-dione], the “WEE1 substrate protein remaining %” value on WEE1 was “B (80%< substrate protein remaining % ≤100%)”. For the same compound, at IKZF1, the “IKZF1 substrate protein remaining %” value was “A (0% ≤ substrate protein remaining % ≤80%)”. In addition, on IKZF2, the “IKZF2 substrate protein remaining %” value was “A (0% ≤ substrate protein remaining % ≤80%)”. For the same compound, the “IKZF3 substrate protein remaining %” value at IKZF3 was “B (80%< substrate protein remaining % ≤100%)”. Also, the “CK1α substrate protein remaining %” value on CK1α is “B (80%< substrate protein remaining % ≤100%)”. The “GSPT1 substrate protein remaining %” value on GSPT1 was “A (0% ≤ substrate protein remaining % ≤80%)”.
